Here are results for five compounds from patent publication US9326927B2, “Use of cannabinoid compounds for stimulating melanogenesis” (L'OREAL, priority 2011, dated 2016).

In assay [1] the test system is Primary human melanocytes (NHEMs). The assay can be described thus: Melanin production in NHEMs (Example 4). It counts as cell-based. The settings on record: 1 μM, 72 h. On the procedure:
(§1) Primary human melanocytes (NHEMs) were seeded into 24-well plates in the presence (coculture) of normal human epidermal keratinocytes (NHEKs) and then cultured for 24 h. The cells were then treated with nothing (negative control), IBMX (positive control, 200 μM), or methanandamide (mAEA, 1 μM).
(§2) After treatment, the cells were incubated for 72 h, all the experimental conditions having been carried out in triplicate.
(§3) After 72 h of incubation, the cells were lysed with a 0.5 N NaOH solution in order to extract the melanin.
(§4) Quantification of the pigmentation by microscopic quantification of the melanin is then carried out and makes it possible to illustrate a propigmenting activity of the test compound.
(§5) The optical density of the samples was measured at 405 nm, with reference to an exogenous melanin range (standard melanin curve 0.39 to 100 μg/ml).

For assay [2], the system named is Normal human epidermal melanocytes (NHEMs). Nature of the assay: Determination of the melanin content of the melanocytes (Example 1). It counts as cell-based. Also noted: key to amount of melanin in NHEM cells, mean: fold of untreated control melanin amount (control = 1). The settings on record: for effect on amount of melanin in the melanocytes (NHEMs), in words: 1 μM, by means of the CB1 receptor; for effect of receptor antagonist on the propigmenting effect of mAEA, in words: antagonist in combination with mAEA 1 μM (SR1 0.1 μM). The procedure:
Normal human epidermal melanocytes (NHEMs) isolated from foreskins and supplied by Promocell (Heidelberg, Germany) are cultured for 24 h at 37° C. in a humid atmosphere at 5% CO2 in an appropriate culture medium M2 (Promocell).
The AEA and the other compounds are added directly to the culture medium. Twenty-four hours after each treatment, the cell viability was measured using Trypan blue exclusion dye (Maccarone et al., 2003).
The mAEA, the AEA and the ACEA are tested in vitro at a concentration of 1 μM and compared. The mAEA is also used at this concentration when it is used in combination with SR1 at 0.1 μM.
Moreover, the mAEA was also tested, alone, at concentrations of 0.5, 1.0, 1.5, 2.0, 2.5 and 3.0 μM.
The amount of melanin present in the NHEM cells is measured according to a method known to those skilled in the art (Xiao et al., Arch Dermatol Res 2007; 299: 245-57). According to this method, the NHEM cells are treated with trypsin and washed twice with a phosphate buffered saline. The samples are then resuspended in 200 μl of MilliQ water, and 1 ml of an ethanol: ether mixture (1:1, vol/vol) is added in order to remove the opaque substances other than melanin. After 15 minutes, the samples are centrifuged at 600 g for 5 minutes. The pellet is air-dried and dissolved in 200 μl of 1 N sodium hydroxide. The samples are then heated at 80° C. for one hour and cooled.
The amount of melanin is determined by spectrophotometry at 450 nm using the standard melanin controls supplied by Sigma Chemical Co., so as to verify the linearity range of the test. The amount of melanin is expressed relative to the control.
The results given are the means, with their standard deviations, of 3 independent tests, each carried out in triplicate. They were compared by analysis of variance (ANOVA).

The subject of the next assay is NHEKs+NHEMs coculture. Nature of the assay: Melanin production in NHEM-NHEK coculture (Example 4). The format is cell-based, human. To be noted: 72 h. On the procedure:
as §1, §2, §3, §4, §5

Assay [3] deals with pigmented reconstructed epidermises (normal human melanocytes and keratinocytes). Nature of the assay: Propigmenting effect on pigmented reconstructed epidermises (PREs), melanin quantified by image analysis (Example 3). The format is cell-based. On the procedure: Pigmented epidermises are reconstructed on a collagen support (BPER [biodressing for reconstructed epidermis]) using normal human melanocytes and keratinocytes.
The epidermises are obtained after 8 days of reconstruction; the melanocytes chosen are of estimated phototype IV.1.
Some epidermises are treated daily with the placebo, others with the test product mAEA at different concentrations (1 μM and 3 μM).
Each experimental condition is performed in quadruplicate.
The histological quality of the epidermises after treatment is evaluated on histological sections after HES staining in order to determine the impact of the treatment on the epidermises. Also, the physiology of the melanocytes is studied in order to detect any melano-cytotoxicity. If no histological modification nor any melanotoxic effect of the product evaluated is noted, the pigmentation is quantified by quantifying the melanin on histological sections by image analysis.
as §4
The melanin present in the epidermis is stained on histological sections (Fontana Masson staining) and then quantified by image analysis. For this, each epidermis is photographed over its entire width using a microscope. Approximately 10 images are acquired per epidermis (white light, ×20 magnification).
The area taken up by melanin is quantified using custom-designed image analysis software. Briefly, each image is segmented into 4 zones according to their color (lumen, stratum corneum, live epidermis and BPER). […] The pixels occupied by the melanin in the whole epidermis or the live layers are then quantified.
This quantification takes into account the area taken up by the melanin and also the average localization of the melanin in the epidermis.
The results below are expressed as percentage relative stimulation with respect to the control cultured in standard coculture medium.

[4] abbreviates: expressed relative to the control, compound alone at 1 μM, mean of 3 independent tests.

`CCCCC/C=C\C/C=C\C/C=C\C/C=C\CCCC(=O)NC(C)CO` (stereo not drawn) [mAEA, R(+)-arachidonyl-1′-hydroxy-2′-propylamide]: in assay [1], the “melanin production in NHEM cells, in words” value was “increase in melanin production”. Also, the “effect on amount of melanin in the melanocytes (NHEMs), in words” value in assay [2] is listed as “significantly increase the amount of melanin”. Also, the “dose/effect relationship of melanin production in NHEM cells, in words” value in assay [2] (0.5 to 3.0 μM) is “dose-dependent increase in melanin production”. In addition, the “amount of melanin in NHEM cells, mean” value in assay [2] (setting [4]) is 2.80; in assay [2] (relative to the control, mAEA 1 μM in combination with SR1 0.1 μM), 1.22; in assay [2] (relative to the control, mAEA alone 0.5 μM), 1.75; in assay [2] (relative to the control, mAEA alone 1.5 μM), 3.30; in assay [2] (relative to the control, mAEA alone 2 μM) it was 3.34; in assay [2] (relative to the control, mAEA alone 2.5 μM) it was 3.75. Further, the “amount of melanin in NHEM cells, mean” value in assay [2] (relative to the control, mAEA alone 3 μM) is 4.13; in assay [2] (relative to the control, mAEA in combination with SR2), 2.34. The “melanin production in NHEK+NHEM cells, in words” value with NHEKs+NHEMs coculture (1 μM) is “increase in melanin production”. Also, in the assay on NHEKs+NHEMs coculture (mAEA 1 μM vs IBMX 200 μM), the “melanin production in NHEKs+NHEMs compared with NHEMs alone and IBMX positive control, in words” value is recorded as “greater than in NHEMs alone, even exceeding that of the IBMX positive control”. Further, the “melanin, percentage relative stimulation with respect to the control” value is reported as 315% in assay [3] (1 μM SYST D17) and 356.25% in assay [3] (second line, printed 1 μM SYST D17). In addition, in assay [3] (1 μM and 3 μM, daily treatment), the “melanin production in pigmented reconstructed epidermises, in words” value is “very large increase in melanin production”.
Consider “N-[(1S)-endo-1,3,3-trimethy-1-bicyclo[2.2.1]heptan-2-yl]-5-(4-choro-3-methylphenyl)-1-(4-methylbenzyl)pyrazole-3-carboxamide [SR2, reference compound]”, for which the “effect of receptor antagonist on the propigmenting effect of mAEA, in words” value in assay [2] is on record as “does not, on the other hand, prevent mAEA from having this effect”.
With `Cc1c(C(=O)NN2CCCCC2)nn(-c2ccc(Cl)cc2Cl)c1-c1ccc(Cl)cc1` [SR1, N-piperidino-5-(4-chlorophenyl)-1-(2,4-dichlorophenyl)-4-methyl-3-pyrazole carboxamide, reference compound], the “effect of receptor antagonist on the propigmenting effect of mAEA, in words” value in assay [2] is listed as “prevents mAEA from having its propigmenting effect”.
For `CCCCC/C=C\C/C=C\C/C=C\C/C=C\CCCC(=O)NCCO` [Anandamide, N-arachidonoylethanolamine], in assay [2], the “effect on amount of melanin in the melanocytes (NHEMs), in words” value was “significantly increase the amount of melanin”. In assay [2] (setting [4]), the “amount of melanin in NHEM cells, mean” value amounted to 2.09.
The matching figures for `CCCCC/C=C\C/C=C\C/C=C\C/C=C\CCCC(=O)NCCCl` [ACEA, Arachidonyl-2′-chloroethylamide]: “significantly increase the amount of melanin” and 2.14.
